The values that follow come from US20260022142A1, “MACROCYCLIC IMMUNOMODULATORS” (Bristol-Myers Squibb Company, priority 2022, published 2026).

Numbered stars: 1 amine (or outer) side, 2 acyl side, 3 side chain; on linkers, the order of the positions; unused ones are H or OH. Bridge positions count the residues as written; N and C are the ends. Square brackets hold non-standard residues; d marks the D form. Peptide text beside a SMILES is read from it. * marks the point of attachment. ξ: configuration not given here. Phe(4-COOH) = N[C@@H](Cc1ccc(C(=O)O)cc1)C(=O)O; Phe(3,4-F2) = N[C@@H](Cc1ccc(F)c(F)c1)C(=O)O; Bip = N[C@@H](Cc1ccc(-c2ccccc2)cc1)C(=O)O; Phe(4-NH2) = Nc1ccc(C[C@H](N)C(=O)O)cc1; Phe(3-Me) = Cc1cccc(C[C@H](N)C(=O)O)c1; Pro(4R-NH2) = N[C@H]1CN[C@H](C(=O)O)C1; γGlu = O=C(O)[C@H](CCC(=O)[*:2])N[*:1]; βAsp = O=C(O)[C@H](CC(=O)[*:2])N[*:1]; NH(CH2)12COOH = O=C(O)CCCCCCCCCCCCN*; Val(3-OH) = CC(C)(O)[C@H](N)C(=O)O; 3Pal = N[C@@H](Cc1cccnc1)C(=O)O; 4Pal = N[C@@H](Cc1ccncc1)C(=O)O; Cha = N[C@@H](CC1CCCCC1)C(=O)O; Cit = NC(=O)NCCC[C@H](N)C(=O)O; aThr = C[C@H](O)[C@H](N)C(=O)O; Thr(3ξ) = CC(O)[C@H](N)C(=O)O; dDab = NCC[C@@H](N)C(=O)O; Carboxymethyl = O=C(O)C*; Orn = NCCC[C@H](N)C(=O)O; Aun = NCCCCCCCCCCC(=O)O; Dab = NCC[C@H](N)C(=O)O; Dap = NC[C@H](N)C(=O)O; AEEA = NCCOCCOCC(=O)O

In this experiment the target is T1, PD-1/PD-L1 interaction (PE-labeled human PD-L1-Ig binding to Jurkat cell line over-expressing human PD-1) (Homo sapiens, UniProt Q15116).
T1 construct: expressed in transfected cells; host or cells: Jurkat
T1 sequence (Q15116 25-288): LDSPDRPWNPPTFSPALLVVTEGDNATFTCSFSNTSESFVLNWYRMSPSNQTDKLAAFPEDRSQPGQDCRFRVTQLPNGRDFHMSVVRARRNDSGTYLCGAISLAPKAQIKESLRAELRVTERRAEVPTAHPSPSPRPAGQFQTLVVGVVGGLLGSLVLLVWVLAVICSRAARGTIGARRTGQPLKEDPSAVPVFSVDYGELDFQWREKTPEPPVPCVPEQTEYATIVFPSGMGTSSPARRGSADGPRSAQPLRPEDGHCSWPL
In words: Jurkat-PD-1 Cell Binding High-Content Screening Assay (CBA). The class given is cell-based. The settings on record: Jurkat cell line over-expressing human PD-1; PE-labeled PD-L1-Ig 20 nM final; read-out: Jurkat hPD1-PDL1 IC50. Put shortly:
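Jurkat cells stably over-expressing human PD-1 were seeded in DMEM with 10% fetal calf serum and pre-incubated with compound for 2 h at 37° C. PE-labeled human PD-L1-Ig was then added at 20 nM final for 1 hour, after which cells were fixed with paraformaldehyde, Hoechst-stained and imaged by high-content microscopy.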
In the case of `CC(=O)NCCCC[C@@H]1NC(=O)[C@H](Cc2cccc(C)c2)NC(=O)[C@H](CC(=O)O)NC(=O)[C@H](Cc2ccc(OCC(=O)O)cc2)NC(=O)[C@H](Cc2ccc(NC(C)=O)cc2)NC(=O)CSC[C@@H](C(=O)N[C@@H](CCN)C(=O)NCCCCCCCCCCC(=O)O)NC(=O)[C@H](C(C)O)NC(=O)[C@H](C(C)C)NC(=O)[C@H](CC2CCCCC2)NC(=O)[C@H](CCN)NC(=O)[C@@H](CC(C)C)NC(=O)[C@H](CCCN)NC(=O)[C@H](CCCCNC(C)=O)NC(=O)[C@H](Cc2ccc(-c3ccccc3)cc2)NC1=O` (stereo partly drawn) [Compound 3602] ({CH2CO}-[Phe(4-NH2)](Ac)Y(Carboxymethyl)D[Phe(3-Me)]K(Ac)[Bip]K(Ac)[Orn][dL][Dab][Cha]V[Thr(3ξ)]C[Dab][Aun]-OH; thioether N-14), the IC50 came out at 23.1 nM. For `Cc1cccc(C[C@@H]2NC(=O)[C@H](CC(=O)O)NC(=O)[C@H](Cc3ccc(OCC(=O)O)cc3)NC(=O)[C@H](CCCNC(=N)N)NC(=O)CSC[C@@H](C(=O)N[C@@H](CCCCN)C(=O)NCCCCCCCCCCC(=O)O)NC(=O)[C@H](CN)NC(=O)[C@H](C(C)C)NC(=O)[C@H](CC3CCCCC3)NC(=O)[C@H](CCN)NC(=O)[C@@H](CC(C)C)NC(=O)[C@H](CCN)NC(=O)[C@H](CCCNC(N)=O)NC(=O)[C@H](Cc3ccc(-c4ccccc4)cc3)NC(=O)[C@H](C(C)C)NC2=O)c1` [Compound 2802] ({CH2CO}-RY(Carboxymethyl)D[Phe(3-Me)]V[Bip][Cit][Dab][dL][Dab][Cha]V[Dap]CK[Aun]-OH; thioether N-14) the value was 15.4 nM; for `CC(=O)NCCCC[C@@H]1NC(=O)[C@H](Cc2ccc(-c3ccccc3)cc2)NC(=O)[C@H](C(C)C)NC(=O)[C@H](Cc2cccc(C)c2)NC(=O)[C@H](CC(=O)O)NC(=O)[C@H](Cc2ccc(OCC(=O)O)cc2)NC(=O)[C@H](CCCNC(=N)N)NC(=O)CSC[C@@H](C(=O)N[C@H](CCN)C(=O)NCCCCCCCCCCC(=O)O)NC(=O)[C@H](C(C)O)NC(=O)[C@H](C(C)C)NC(=O)[C@H](CC2CCCCC2)NC(=O)[C@H](CCN)NC(=O)[C@@H](CC(C)C)NC(=O)[C@H](CCCN)NC1=O` (stereo partly drawn) [Compound 3558] ({CH2CO}-RY(Carboxymethyl)D[Phe(3-Me)]V[Bip]K(Ac)[Orn][dL][Dab][Cha]V[Thr(3ξ)]C[dDab][Aun]-OH; thioether N-14), 29.8 nM; for `CC(C)C[C@H]1NC(=O)[C@H](CCCN)NC(=O)[C@H](C(C)C)NC(=O)[C@H](Cc2ccc(-c3ccccc3)cc2)NC(=O)[C@H](C(C)C)NC(=O)[C@H](Cc2c[nH]c3ccccc23)NC(=O)[C@H](CC(=O)O)NC(=O)[C@H](Cc2ccc(OCC(=O)O)cc2)NC(=O)[C@H](CCCNC(=N)N)NC(=O)CSC[C@@H](C(=O)NCC(=O)NCCOCCOCC(=O)N[C@@H](CCCN)C(=O)NCCCCCCCCCCC(=O)O)NC(=O)[C@H](CCN)NC(=O)[C@H](C(C)C)NC(=O)[C@H](CC2CCCCC2)NC(=O)[C@@H]2C[C@@H](N)CN2C1=O` [Compound 3242] ({CH2CO}-RY(Carboxymethyl)DWV[Bip]V[Orn][dL][Pro(4R-NH2)][Cha]V[Dab]CG[AEEA][Orn][Aun]-OH; thioether N-14), 700 nM. For `Cc1cccc(C[C@@H]2NC(=O)[C@H](CC(=O)O)NC(=O)[C@H](Cc3ccc(OCC(=O)O)cc3)NC(=O)[C@H](CC(N)=O)NC(=O)CSC[C@@H](C(=O)N[C@@H](CCN)C(=O)NCCCCCCCCCCC(=O)O)NC(=O)[C@H]([C@H](C)O)NC(=O)[C@H](C(C)C)NC(=O)[C@H](CC3CCCCC3)NC(=O)[C@H](CCN)NC(=O)[C@@H](CC(C)C)NC(=O)[C@H](CCCN)NC(=O)[C@H](Cc3ccc(O)cc3)NC(=O)[C@H](Cc3ccc(-c4ccccc4)cc3)NC(=O)[C@H](C(C)C)NC2=O)c1` [Compound 3377] ({CH2CO}-NY(Carboxymethyl)D[Phe(3-Me)]V[Bip]Y[Orn][dL][Dab][Cha]V[aThr]C[Dab][Aun]-OH; thioether N-14) the value was 13.5 nM; for `CC(C)C[C@H]1NC(=O)[C@H](CCCN)NC(=O)[C@H](C(C)C)NC(=O)[C@H](Cc2ccc(-c3ccccc3)cc2)NC(=O)[C@H](C(C)C)NC(=O)[C@H](Cc2c[nH]c3ccccc23)NC(=O)[C@H](CC(=O)O)NC(=O)[C@H](Cc2ccc(OCC(=O)O)cc2)NC(=O)[C@H](Cc2ccc(OCC(=O)O)cc2)NC(=O)CSC[C@@H](C(=O)NCCOCCOCC(=O)N[C@@H](CCN)C(=O)NCCCCCCCCCCC(=O)O)NC(=O)[C@H](CN)NC(=O)[C@H](C(C)C)NC(=O)[C@H](CC2CCCCC2)NC(=O)[C@H](CCN)NC1=O` [Compound 2546] ({CH2CO}-Y(Carboxymethyl)Y(Carboxymethyl)DWV[Bip]V[Orn][dL][Dab][Cha]V[Dap]C[AEEA][Dab][Aun]-OH; thioether N-14), 13.3 nM; for `Cc1cccc(C[C@@H]2NC(=O)[C@H](CC(=O)O)NC(=O)[C@H](Cc3ccc(OCC(=O)O)cc3)NC(=O)[C@H](CCN)NC(=O)CSC[C@@H](C(=O)N[C@@H](CCN)C(=O)NCCOCCOCC(=O)N[C@@H](CC(=O)O)C(=O)NCCOCCOCC(=O)N[C@@H](CCC(=O)NCC(=O)NCCCCCCCCCCCCC(=O)O)C(=O)O)NC(=O)[C@H](Cc3cnc[nH]3)NC(=O)[C@H](C(C)(C)O)NC(=O)[C@H](CC3CCCCC3)NC(=O)[C@H](CCN)NC(=O)[C@@H](CC(C)C)NC(=O)[C@H](CCCN)NC(=O)[C@H](Cc3ccc(C(=O)O)cc3)NC(=O)[C@H](Cc3ccc(-c4ccccc4)cc3)NC(=O)[C@H](Cc3ccc(C(=O)O)cc3)NC2=O)c1` [Compound 1285] ({CH2CO}-[Dab]Y(Carboxymethyl)D[Phe(3-Me)][Phe(4-COOH)][Bip][Phe(4-COOH)][Orn][dL][Dab][Cha][Val(3-OH)]HC[Dab][AEEA]D[AEEA][γGlu]G-{NH(CH2)12COOH}; thioether N-14), 6.4 nM. In the case of `Cc1cccc(C[C@@H]2NC(=O)[C@H](CC(=O)O)NC(=O)[C@H](Cc3ccc(OCC(=O)O)cc3)NC(=O)[C@H](CN)NC(=O)CSC[C@@H](C(=O)N[C@@H](CC(=O)NCCCCCCCCCCC(=O)O)C(=O)O)NC(=O)[C@H]([C@@H](C)O)NC(=O)[C@H](C(C)C)NC(=O)[C@H](CC3CCCCC3)NC(=O)[C@H](CCN)NC(=O)[C@@H](CC(C)C)NC(=O)[C@H](CCCN)NC(=O)[C@H](CCCNC(N)=O)NC(=O)[C@H](Cc3ccc(-c4ccccc4)cc3)NC(=O)[C@H](C(C)C)NC2=O)c1` [Compound 1025] ({CH2CO}-[Dap]Y(Carboxymethyl)D[Phe(3-Me)]V[Bip][Cit][Orn][dL][Dab][Cha]VTC[βAsp][Aun]-OH; thioether N-14), the IC50 came out at 10.8 nM.

Turning to `Cc1cccc(C[C@@H]2NC(=O)[C@H](CC(=O)O)NC(=O)[C@H](Cc3ccc(OCC(=O)O)cc3)NC(=O)[C@H](Cc3ccc(F)c(F)c3)NC(=O)CSC[C@@H](C(=O)N[C@@H](CCN)C(=O)NCCCCCCCCCCC(=O)O)NC(=O)[C@H](CO)NC(=O)[C@H](C(C)(C)O)NC(=O)[C@H](CC3CCCCC3)NC(=O)[C@H](CCN)NC(=O)[C@@H](CC(C)C)NC(=O)[C@H](CCCN)NC(=O)[C@H](Cc3ccc(OCC(=O)O)cc3)NC(=O)[C@H](Cc3ccc(-c4ccccc4)cc3)NC(=O)[C@H](Cc3ccc(OCC(=O)O)cc3)NC2=O)c1` [Compound 2217] ({CH2CO}-[Phe(3,4-F2)]Y(Carboxymethyl)D[Phe(3-Me)]Y(Carboxymethyl)[Bip]Y(Carboxymethyl)[Orn][dL][Dab][Cha][Val(3-OH)]SC[Dab][Aun]-OH; thioether N-14), the IC50 turned out to be 27.9 nM. The value for `Cc1cccc(C[C@@H]2NC(=O)[C@H](CC(=O)O)NC(=O)[C@H](Cc3cccnc3)NC(=O)[C@H](CC(N)=O)NC(=O)CSC[C@@H](C(=O)N[C@@H](CCN)C(=O)NCCCCCCCCCCC(=O)O)NC(=O)[C@H]([C@@H](C)O)NC(=O)[C@H](C(C)C)NC(=O)[C@H](CC3CCCCC3)NC(=O)[C@H](CCN)NC(=O)[C@@H](CC(C)C)NC(=O)[C@H](CCCN)NC(=O)[C@H](Cc3ccc(O)cc3)NC(=O)[C@H](Cc3ccc(-c4ccccc4)cc3)NC(=O)[C@H](C(C)C)NC2=O)c1` [Compound 2740] ({CH2CO}-N[3Pal]D[Phe(3-Me)]V[Bip]Y[Orn][dL][Dab][Cha]VTC[Dab][Aun]-OH; thioether N-14) was 19.7 nM.

For the compound `Cc1cccc(C[C@@H]2NC(=O)[C@H](CC(=O)O)NC(=O)[C@H](Cc3ccc(OCC(=O)O)cc3)NC(=O)[C@H](CCCNC(=N)N)NC(=O)CSC[C@@H](C(=O)N[C@@H](CCN)C(=O)NCCCCCCCCCCC(=O)O)NC(=O)[C@H]([C@@H](C)O)NC(=O)[C@H](C(C)C)NC(=O)[C@H](CC3CCCCC3)NC(=O)[C@H](CCN)NC(=O)[C@@H](CC(C)C)NC(=O)[C@H](CCCN)NC(=O)[C@H](Cc3ccc(O)cc3)NC(=O)[C@H](Cc3ccc(-c4ccccc4)cc3)NC(=O)[C@H](C(C)C)NC2=O)c1` [Compound 2725] ({CH2CO}-RY(Carboxymethyl)D[Phe(3-Me)]V[Bip]Y[Orn][dL][Dab][Cha]VTC[Dab][Aun]-OH; thioether N-14), the IC50 came out at 29.9 nM. On to `Cc1cccc(C[C@@H]2NC(=O)[C@H](CC(=O)O)NC(=O)[C@H](Cc3ccc(OCC(=O)O)cc3)NC(=O)[C@H](Cc3ccncc3)NC(=O)CSC[C@@H](C(=O)N[C@@H](CCN)C(=O)NCCCCCCCCCCC(=O)O)NC(=O)[C@H](CO)NC(=O)[C@H](C(C)(C)O)NC(=O)[C@H](CC3CCCCC3)NC(=O)[C@H](CCN)NC(=O)[C@@H](CC(C)C)NC(=O)[C@H](CCCN)NC(=O)[C@H](Cc3ccc(OCC(=O)O)cc3)NC(=O)[C@H](Cc3ccc(-c4ccccc4)cc3)NC(=O)[C@H](Cc3ccc(OCC(=O)O)cc3)NC2=O)c1` [Compound 2215] ({CH2CO}-[4Pal]Y(Carboxymethyl)D[Phe(3-Me)]Y(Carboxymethyl)[Bip]Y(Carboxymethyl)[Orn][dL][Dab][Cha][Val(3-OH)]SC[Dab][Aun]-OH; thioether N-14), for which the concentration for half-maximal inhibition (IC50) worked out at 12.8 nM.
